Consider nine compounds from PubChem BioAssay (NCI).

Molecules are shown by their SMILES.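 Results reflect a 48-hour exposure of cells in 96-well plates to compound at five concentrations. At the GI50, growth is halved. TGI denotes the concentration required for complete inhibition of growth.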 A value given as a limit tells only on which side of the number the result lay.

Test systems include HS 578T breast; T-47D breast; NCI-H23 lung; SK-MEL-28 melanoma; HCC-2998 colon; 786-0 renal; OVCAR-5 ovarian; A498 renal; UO-31 renal; DU-145 prostate.
Holding throughout (test): inhibition of tumour cell growth, NCI panel, 48 h

With `COCCn1cc(-c2nc(-c3cc4cccnc4[nH]3)cs2)c2cc(OC)ccc21`, the GI50 is 1.99 µM in the assay with HS 578T breast; 0.033 µM with T-47D breast; 1.5 µM in the assay with NCI-H23 lung; 5.21 µM in the assay on SK-MEL-28 melanoma; 3.68 µM in the assay with HCC-2998 colon; 3.04 µM in the assay on 786-0 renal. Moreover, the GI50 in the assay with OVCAR-5 ovarian was 0.524 µM; in the assay with A498 renal, 1.86 µM; in the assay on UO-31 renal, 1.84 µM; in the assay on DU-145 prostate, 3.96 µM. Further, the TGI was 6.78 µM in the assay on HS 578T breast; 0.992 µM in the assay on T-47D breast; 10.8 µM in the assay with NCI-H23 lung; greater than 100 µM in the assay on SK-MEL-28 melanoma; 97.4 µM with HCC-2998 colon; 20.9 µM in the assay on 786-0 renal. Moreover, the TGI in the assay with OVCAR-5 ovarian was greater than 96.4 µM; in the assay with A498 renal it was 6.18 µM; with UO-31 renal it was 11 µM; in the assay on DU-145 prostate, 56.1 µM.
In the case of `c1ccc(Nc2ncc(-c3ccccc3)o2)cc1`, the GI50 in the assay with HS 578T breast is 11.5 µM; in the assay with T-47D breast it was greater than 25 µM; in the assay on NCI-H23 lung, greater than 25 µM; with SK-MEL-28 melanoma it was greater than 25 µM; in the assay with HCC-2998 colon, greater than 25 µM; in the assay on 786-0 renal, greater than 25 µM. The GI50 in the assay with OVCAR-5 ovarian is greater than 25 µM; in the assay with A498 renal, greater than 24 µM; with UO-31 renal it was 9.95 µM; with DU-145 prostate, greater than 25 µM. In addition, the TGI in the assay on HS 578T breast, with T-47D breast, in the assay on NCI-H23 lung, with SK-MEL-28 melanoma, in the assay on HCC-2998 colon and in the assay on 786-0 renal was greater than 25 µM in each case. Further, the TGI with OVCAR-5 ovarian, with A498 renal, with UO-31 renal and in the assay with DU-145 prostate was greater than 25 µM in each case.
For the compound `Cn1cc(-c2cc3c(N4CCN(c5ncc([C@@](C)(N)c6ccc(F)cc6)cn5)CC4)ncnn3c2)cn1`, the GI50 is 1.82 µM with HS 578T breast; 4.23 µM in the assay on HCC-2998 colon; 3.15 µM with 786-0 renal; 6.24 µM in the assay on A498 renal; 1.84 µM with UO-31 renal; greater than 100 µM with DU-145 prostate. Further, the TGI in the assay with HS 578T breast, with HCC-2998 colon, in the assay on 786-0 renal, in the assay on A498 renal, with UO-31 renal and in the assay with DU-145 prostate was greater than 100 µM throughout.
Consider `C/C=C/[C@@H]1O[C@@H]2COC(=O)C2=C[C@@H]1O`, for which the GI50 is 23.4 µM in the assay on HS 578T breast; 6.31 µM in the assay on T-47D breast; 14.1 µM in the assay on NCI-H23 lung; 15.3 µM with SK-MEL-28 melanoma; 24.1 µM in the assay on HCC-2998 colon; 6.79 µM with 786-0 renal. Also, the GI50 in the assay with OVCAR-5 ovarian is 19.2 µM; in the assay on UO-31 renal it was 4.21 µM; with DU-145 prostate it was 5.03 µM. Further, the TGI is 58.2 µM in the assay on HS 578T breast; 24.2 µM in the assay with T-47D breast; 37.3 µM in the assay on NCI-H23 lung; 32.9 µM with SK-MEL-28 melanoma; 48.8 µM in the assay on HCC-2998 colon; 21.1 µM with 786-0 renal. The values for the TGI with OVCAR-5 ovarian, in the assay with UO-31 renal and in the assay on DU-145 prostate were 37.1 µM, greater than 51.6 µM and 18.8 µM, respectively.
With `O=C(Nc1cccc(C(F)(F)F)c1)Nc1cccc(C(F)(F)F)c1`, the GI50 was 2.25 µM in the assay on HS 578T breast; 0.398 µM with T-47D breast; 0.349 µM in the assay with NCI-H23 lung; 1.86 µM in the assay with SK-MEL-28 melanoma; 1.51 µM in the assay with HCC-2998 colon; 1.56 µM in the assay on 786-0 renal. Also, the GI50 is 3.24 µM in the assay with OVCAR-5 ovarian, 0.649 µM with UO-31 renal and 0.92 µM with DU-145 prostate. For the same compound, the TGI is 12.5 µM in the assay with HS 578T breast; 2.94 µM in the assay with T-47D breast; 1.97 µM in the assay with NCI-H23 lung; 10.5 µM in the assay with SK-MEL-28 melanoma; 6.5 µM with HCC-2998 colon; 4.14 µM with 786-0 renal. In addition, the results for the TGI in the assay with OVCAR-5 ovarian, in the assay with UO-31 renal and with DU-145 prostate were 14.8 µM, 4.21 µM and 12.4 µM, respectively.
In the case of `CC#Cc1ccc(-c2ccccc2)s1`, the TGI in the assay on HS 578T breast, with NCI-H23 lung, in the assay on SK-MEL-28 melanoma, in the assay on 786-0 renal, in the assay with OVCAR-5 ovarian and in the assay on A498 renal was greater than 100 µM throughout. In addition, the TGI with UO-31 renal and with DU-145 prostate was greater than 100 µM each time.
As for `CCC(C)SC1SCC2C(=O)N(C)C3(CC3C)C(=O)OCC(NC(=O)c3nc4ccccc4cc3O)C(=O)NC(C)C(=O)N(C)C1C(=O)N(C)C1(CC1C)C(=O)OCC(NC(=O)c1nc3ccccc3cc1O)C(=O)NC(C)C(=O)N2C` (configuration not stated), the TGI in the assay on HS 578T breast stood at 0.000309 µM; in the assay on T-47D breast, 0.00514 µM; with NCI-H23 lung it was 0.000154 µM; with SK-MEL-28 melanoma, 0.000138 µM; in the assay with HCC-2998 colon it was 0.000369 µM; with 786-0 renal, 1.3 µM. Also, the TGI in the assay on OVCAR-5 ovarian turned out to be 0.00256 µM; in the assay with A498 renal, 0.000492 µM; in the assay on UO-31 renal, 0.0127 µM. The GI50 with SK-MEL-28 melanoma is 3.02e-05 µM.
For `O=[N+]([O-])c1cc([N+](=O)[O-])c(C(F)(F)F)cc1NN=C(c1ccc(O)cc1)c1ccc(O)cc1`, the GI50 is 2.74 µM with T-47D breast; 4.23 µM with NCI-H23 lung; 1.89 µM in the assay on SK-MEL-28 melanoma; 3.2 µM in the assay on HCC-2998 colon; 2.67 µM with 786-0 renal; 11 µM in the assay with OVCAR-5 ovarian. The GI50 in the assay with A498 renal was 3.18 µM; with UO-31 renal, 3.15 µM; with DU-145 prostate, 3.79 µM. Also, the TGI in the assay on T-47D breast is 13.3 µM; with NCI-H23 lung, 31 µM; with SK-MEL-28 melanoma, 4.47 µM; in the assay with HCC-2998 colon, 8.58 µM; in the assay on 786-0 renal, 9.54 µM; with OVCAR-5 ovarian it was 50 µM. In addition, the TGI was 12.7 µM with A498 renal, 13.3 µM in the assay on UO-31 renal and 13.8 µM with DU-145 prostate.
In the case of `CN1CCN(c2ccc(Nc3ncc(Cl)c(NC[C@@H]4CCCO4)n3)cc2)CC1`, the GI50 was 1.32 µM with HS 578T breast; 5.8 µM in the assay with T-47D breast; 0.987 µM in the assay with NCI-H23 lung; 4.18 µM in the assay on SK-MEL-28 melanoma; 1.65 µM in the assay with HCC-2998 colon; 1.68 µM in the assay with 786-0 renal. In addition, the GI50 in the assay with OVCAR-5 ovarian was 1.18 µM; with A498 renal it was 0.803 µM; in the assay on DU-145 prostate it was 1.96 µM. In addition, the TGI came to 11.2 µM in the assay with HS 578T breast; 58.3 µM with T-47D breast; 11.6 µM in the assay with NCI-H23 lung; 21.5 µM in the assay on SK-MEL-28 melanoma; 37.5 µM in the assay with HCC-2998 colon; 15.1 µM in the assay on 786-0 renal. For the same compound, the TGI with OVCAR-5 ovarian is greater than 100 µM; with A498 renal it was 3.36 µM; with DU-145 prostate, greater than 100 µM.
